These results are taken from patent US9232796B2, “Herbicidal compositions comprising 4-amino-3-chloro-5-fluoro-6-(4-chloro-2-fluoro-3-methoxyphenyl) pyridine-2-carboxylic acid or a derivative thereof and acetyl-CoA carboxylase (ACCase) inhibitors” (DOW AGROSCIENCES LLC, priority 2012, dated 2016).

One assay has as its system CYPES. The assay can be described thus: Example I postemergence foliar-applied, greenhouse, direct seeded rice weeds. It is filed as in vivo, Cyperus esculentus L. From the text: Seeds or nutlets of the desired test plant species were planted in a soil matrix prepared by mixing a loam or sandy loam soil (e.g., 28.6 percent silt, 18.8 percent clay, and 52.6 percent sand, with a pH of about 5.8 and an organic matter content of about 1.8 percent) and calcareous grit in an 80 to 20 ratio. The soil matrix was contained in plastic pots with a volume of 1 quart and a surface area of 83.6 square centimeters (cm^2). When required to ensure good germination and healthy plants, a fungicide treatment and/or other chemical or physical treatment was applied. The plants were grown for 8-22 days in a greenhouse with an approximate 14 hr. photoperiod which was maintained at about 29° C. during the day and 26° C. during the night. Nutrients (Peters Excel® 15-5-15 5-Ca 2-Mg and iron chelate) were applied in the irrigation solution as needed and water was added on a regular basis. Supplemental lighting was provided with overhead metal halide 1000-Watt lamps as necessary. The plants were employed for testing when they reached the first through fourth true leaf stage.
Treatments consisted of the acid or esters of 4-amino-3-chloro-5-fluoro-6-(4-chloro-2-fluoro-3-methoxy-phenyl)pyridine-2-carboxylic acid (Compound A), each formulated as an SC (suspension concentrate), and various herbicidal components alone and in combination.
Other herbicidal components were applied on an acid equivalent (ae) or active ingredient (ai) basis and included acetyl coA carboxylase (ACCase)-inhibiting herbicides (cyclohexanedione and aryloxyphenoxypropionate chemical classes) cyhalofop-butyl formulated as Clincher® SF (285 gr ai/L EC), diclofop-methyl formulated as Hoelon® 3EC, fenoxaprop-p-ethyl+isoxadifen-ethyl formulated as RiceStar® HT (0.58 lb./gal EC), fenoxaprop-p-ethyl+mefenpyr diethyl formulated as Puma® IEC, metamifop formulated as Metamifop EC, haloxyfop-methyl formulated as Gallant Super®, fluazifop-p-butyl formulated as Fusilade® DX, quizalofop-p-ethyl formulated as Assure® II, profoxydim formulated as Aura® 20EC, clethodim applied as Intensity®, sethoxydim formulated as Poast®, and tralkoxydim formulated as Achieve®.
(§1) Treatment requirements were calculated based upon the rates being tested, the concentration of active ingredient or acid equivalent in the formulation, and a 12 mL application volume at a rate of 187 L/ha.
For treatments comprised of formulated compounds, measured amounts of compounds were placed individually in 25 mL glass vials and diluted in a volume of 1.25% (v/v) Agri-Dex® crop oil concentrated to obtain 12× stock solutions. […] Application solutions were prepared by adding an appropriate amount of each stock solution (e.g., 1 mL) and diluted to the appropriate final concentrations with the addition of 10 mL of an aqueous mixture of 1.25% (v/v) crop oil concentrate so that the final spray solutions contained 1.25+/−0.05% (v/v) crop oil concentrate.
All stock solutions and applications solutions were visually inspected for compound compatibility prior to application. Spray solutions were applied to the plant material with an overhead Mandel track sprayer equipped with a 8002E nozzles calibrated to deliver 187 L/ha over an application area of 0.503 m^2 at a spray height of 18 to 20 inches (46 to 50 cm) above average plant canopy height. Control plants were sprayed in the same manner with the solvent blank.
The treated plants and control plants were placed in a greenhouse as described above and watered by sub-irrigation to prevent wash-off of the test compounds. After approximately 3 weeks, the condition of the test plants as compared with that of the untreated plants was determined visually and scored on a scale of 0 to 100 percent where 0 corresponds to no injury or growth inhibition and 100 corresponds to complete kill. […]

The test system of the next assay is SCPJU. The assay can be described thus: Example V (second) postemergence foliar-applied ternary mixtures, greenhouse, direct seeded rice weeds. It is filed as in vivo, Schoenoplectus juncoides (Roxb.) Palla.
Text: Seeds or nutlets of the desired test plant species were planted in a soil matrix prepared by mixing a sandy loam or loam soil (e.g., 32 percent silt, 23 percent clay, and 45 percent sand, with a pH of about 6.5 and an organic matter content of about 1.9 percent) and calcareous grit in an 80 to 20 ratio. The soil matrix was contained in plastic pots with a volume of 1 quart and a surface area of 83.6 square centimeters (cm^2). When required to ensure good germination and healthy plants, a fungicide treatment and/or other chemical or physical treatment was applied. The plants were grown for 8-22 days in a greenhouse with an approximate 14 hr. photoperiod which was maintained at about 29° C. during the day and 26° C. during the night. Nutrients (Peters Excel® 15-5-15 5-Ca 2-Mg and iron chelate) were applied in the irrigation solution as needed and water was added on a regular basis. Supplemental lighting was provided with overhead metal halide 1000-Watt lamps as necessary. The plants were employed for testing when they reached the first through fourth true leaf stage.
Treatments consisted of the benzyl ester of 4-amino-3-chloro-5-fluoro-6-(4-chloro-2-fluoro-3-methoxy-phenyl)pyridine-2-carboxylic acid (Compound A), formulated as an SC (suspension concentrate), an ACCase inhibitor, and a third herbicidal component, each applied alone and in ternary combination. Forms of compound A were applied on an acid equivalent basis.
The ACCase inhibitor component was applied on an active ingredient basis and included cyhalofop-R-butyl formulated as Clincher® SF, fenoxaprop-p-ethyl formulated as RiceStar® HT, and profoxydim formulated as Aura® 20EC. Other herbicidal components were applied on an active ingredient or acid equivalent basis depending on the compound and included penoxsulam formulated as Grasp® SC, bentazon sodium formulated as Basagran®, triclopyr […] (TEA) salt formulated as Grandstand® R, bispyribac sodium formulated as Regiment® 80WP, imazamox ammonium formulated as Beyond®, benzobicyclon, quinclorac formulated as Facet® 75DF, glyphosate dimethylammonium (DMA) salt formulated as Durango® DMA, glufosinate ammonium formulated as Ignite® 280, fentrazamide formulated as an emulsifiable concentrate (EC), propyrisulfuron formulated as Zeta One®, and indanofan (technical grade material).
as §1
For treatments comprised of formulated compounds, measured amounts of compounds were placed individually in 25 mL glass vials and diluted in a volume of 1.25% (v/v) Agri-Dex® crop oil concentrate to obtain 12× stock solutions. […]

Take `COc1c(Cl)ccc(-c2nc(C(=O)O)c(Cl)c(N)c2F)c1F` [Compound A Acid, 4-amino-3-chloro-6-(4-chloro-2-fluoro-3-methoxyphenyl)-5-fluoropyridine-2-carboxylic acid]: in the assay on CYPES (4.38 gae/ha), the “Visual Weed Control (%) - 20 DAA CYPES Obs” value came out at 30% and the “Visual Weed Control (%) - 22 DAA CYPES Obs” value is 50%. In the assay with CYPES (8.75 gae/ha), the “Visual Weed Control (%) - 20 DAA CYPES Obs” value is given as 70% and the “Visual Weed Control (%) - 22 DAA CYPES Obs” value amounted to 75%.
`COc1c(Cl)ccc(-c2nc(C(=O)OCc3ccccc3)c(Cl)c(N)c2F)c1F` [Compound A Benzyl Ester, benzyl ester of 4-amino-3-chloro-5-fluoro-6-(4-chloro-2-fluoro-3-methoxy-phenyl)pyridine-2-carboxylic acid]: the “Visual Weed Control (%) - 20 DAA CYPES Obs” value in the assay with CYPES (4.38 gae/ha) is listed as 70%; with CYPES (8 gae/ha), 0%; with CYPES (8.75 gae/ha) it was 80%; in the assay on CYPES (16 gae/ha) it was 75%; with CYPES (17.5 gae/ha) it was 95%. For the same molecule, the entries for the “Visual Weed Control (%) - 21 DAA SCPJU Obs” value in the assay with SCPJU (2.19 gae/ha) and with SCPJU (4.38 gae/ha) were 65% and 96%, respectively.
Regarding `CCCCOC(=O)[C@@H](C)Oc1ccc(Oc2ccc(C#N)cc2F)cc1` [Cyhalofop-butyl, butyl(2R)-2-[4-(4-cyano-2-fluorophenoxy)phenoxy]propanoate, reference compound], in the assay on SCPJU (35 gai/ha), the “Visual Weed Control (%) - 21 DAA SCPJU Obs” value turned out to be 0%.
